Measurements: patent US7001611B2, “Compositions normalizing circadian rhythm” (Suntory Limited, priority 2000, dated 2006)
Entries after “also recorded” stand apart in the source; their conditions may differ.

Experiments:
Wistar rats = experiment: Circadian rhythm measuring method: amount of daily (spontaneous) movements of rats counted with an infrared sensor under a 12-hour light / 12-hour dark cycle; assay type: in vivo, rat; settings: for ratio of activity in the light period to the total amount of movements (averages): Example 2, vs control group, astaxanthin diet, melatonin water (about 1 mg/day) or both, FIG. 5; for enhancive effect on the circadian rhythm normalizing action of melatonin: Example 3
Source text: To search for a substance having the action of normalizing the circadian rhythm, the inventors of the present invention conducted studies on various substances with the use of a circadian rhythm measuring method, with the amount of spontaneous movement of rats as an indicator, in an environment controlled to have a 12-hour light period and a 12-hour dark period. As a result, the inventors have clarified that astaxanthin, which is one of carotenoids, and/or its ester has a circadian rhythm normalizing action. […] These findings led them to accomplish the present invention. The influence of astaxanthin on daily movements was investigated in rats. Rats have the habit of resting (sleeping) mainly in the light period, and acting in the dark period. The circadian rhythm of rats was investigated by measuring the amount of daily movements continuously, and examining changes over time in the amounts of movements in the light period and the dark period. Four-week-old male Wistar rats (purchased from Nippon […]) were preliminarily reared for one week, and subjected to experiments at the age of 5 weeks. The rats were randomly divided into two groups (5 to 6 rats/group), and one of the groups was used as a control diet (low tocopherol) group, while the other group was used as an astaxanthin diet group, each group receiving the designated diet for 4 weeks. The animals were reared in animal cages kept at room temperature of 23.5±1° C. and a humidity of 55±5%, and the feed and water were provided ad libitum. Astaxanthin used was astaxanthin extracted from […] purified (an oil containing 15% of astaxanthin as a free compound; a product of Itano Refrigerating Co.). The rats were individually reared in a box equipped with an infrared sensor, and the amount of movements was counted with the infrared sensor. That is, each time the animal passed the infrared sensor, the passage was taken as one count. The counts taken were accumulated, and expressed as the amount of movements (counts). Statistical treatment was performed using ANOVA and student t-test. A period of 1 week after start of rearing with the experimental diet was set as a tuning period in which the animal was tuned to a 12-hour dark period and a 12-hour light period. Then, from the 2nd week, the amount of daily movements was continuously measured for 3 weeks. The total amount of movements, and the ratio of movements in the light period to the total amount of movements (i.e., the amount of movements in the light period/the total amount of movements×100 (%)) were calculated every day. […] The averages of the ratio (%) of movements in the light period were compared in both groups (FIG. 3). […] Four-week-old male Wistar rats (purchased from Nippon […]) were preliminarily reared for one week, and subjected to experiments at the age of 5 weeks. The rats were randomly divided into two groups (10 to 11 rats/group), and the two groups were given a control diet (low tocopherol diet) and an astaxanthin diet (Table 1), respectively. Each group was further divided into two groups (5 to 6 rats/group), which received distilled water and melatonin water, respectively, for 4 weeks. The animals were reared in animal cages kept at room temperature of 23.5±1° C. and a humidity of 55±5%, and the feed and water were provided ad libitum. Melatonin was dissolved in water at a concentration of 0.5 mg/100 ml, and the solution was given ad lib, as drinking water. The intake of melatonin, calculated from the amount of water taken by rats, was about 1 mg/day. After start of rearing with the experimental diet, a tuning period of 1 week was provided. Then, the amount of movements of rats was measured as in Example 1 for 3 weeks to look into changes in the circadian rhythm. No differences were noted among the averages of the total amount of movements in the respective groups (FIG. 4). […]

[1] = system: lipid peroxides in the brain; settings: dose 1/100 the dose of α-tocopherol; Nishigaki et al. 1994; cited from earlier work
[2] = Yamashita 1992; cited from earlier work
[3] = Example 4, tocopherol-deficient basic feed, FIG. 9

COc1ccc2[nH]cc(CCNC(C)=O)c2c1 [melatonin, reference compound]
ratio of activity in the light period to the total amount of movements (averages) (Wistar rats): tendency toward a decrease in the ratio of activity in the light period

Cc1c(C)c2c(c(C)c1O)CC[C@@](C)(CCC[C@H](C)CCC[C@H](C)CCCC(C)C)O2 [α-tocopherol, reference compound]
enhancive effect on the circadian rhythm normalizing action of melatonin (Wistar rats; 0.001% tocopherol diet with melatonin water, FIG. 6): no effect of enhancing the circadian rhythm normalizing action of melatonin | enhancive effect on the circadian rhythm normalizing action of melatonin (Wistar rats; 0.005% tocopherol diet with melatonin water, FIG. 7): no effect of enhancing the circadian rhythm normalizing action of melatonin | enhancive effect on the circadian rhythm normalizing action of melatonin (Wistar rats; 0.005% tocopherol diet with melatonin water, FIG. 7, listed as tocopherol): slight enhancive effect

CC1=C(/C=C/C(C)=C/C=C/C(C)=C/C=C/C=C(C)/C=C/C=C(C)/C=C/C2=C(C)C(=O)[C@@H](O)CC2(C)C)C(C)(C)C[C@H](O)C1=O [Astaxanthin, astaxanthin]
increases in lipid peroxides in the brain caused by irradiation with 60Co [1]: can suppress increases in lipid peroxides in the brain | antioxidant action compared with α-tocopherol [2]: more potent than that of α-tocopherol | total amount of movements (day-to-day changes) (Wistar rats; Example 1, astaxanthin diet (0.3 g/kg of oil containing 15% astaxanthin) vs control low tocopherol diet, 3 weeks, FIG. 1): did not affect the total amount of movements | average of the ratio (%) of movements in the light period (Wistar rats; Example 1, astaxanthin diet group vs control, FIG. 3): significant decrease in the ratio of movements in the light period | ratio of movements in the light period to the total amount of movements (day-to-day changes) (Wistar rats; Example 1, astaxanthin diet vs control low tocopherol diet, 3 weeks, FIG. 2): lowered the ratio of movements in the light period | ratio of activity in the light period to the total amount of movements (averages) (Wistar rats): tendency toward a decrease in the ratio of activity in the light period | enhancive effect on the circadian rhythm normalizing action of melatonin (Wistar rats; 0.0045% astaxanthin diet with melatonin water, FIG. 8): enhance the circadian rhythm normalizing action of melatonin significantly; also recorded: more potent effect of enhancing the circadian rhythm normalizing action of melatonin than does α-tocopherol | total amount of movements (Wistar rats; Example 4, maximum dose of 1.5 g/kg diet, tocopherol-deficient basic feed, FIG. 10): tended to increase | doses at which the decrease of the ratio of activity in the light period was significant (Wistar rats; [3]): ≥ 0.3 g/kg diet | minimum dose at which the ratio of activity in the light period decreased (Wistar rats; [3]): 0.15 g/kg diet | ratio of activity in the light period to the total amount of movements (dose dependency) (Wistar rats; Example 4, tocopherol-deficient basic feed, astaxanthin diets 0.15, 0.3, 0.6, 1.5 g/kg, FIG. 9): decreased in an astaxanthin concentration-dependent manner
